pEC50: −log10 of the molar value.

In the first experiment the target is T1, ΔF508-CFTR (Homo sapiens, UniProt P13569, DEL508-508).
T1 construct: expressed in transfected cells
T1 sequence (P13569 with tags, fused parts or gaps DEL508-508): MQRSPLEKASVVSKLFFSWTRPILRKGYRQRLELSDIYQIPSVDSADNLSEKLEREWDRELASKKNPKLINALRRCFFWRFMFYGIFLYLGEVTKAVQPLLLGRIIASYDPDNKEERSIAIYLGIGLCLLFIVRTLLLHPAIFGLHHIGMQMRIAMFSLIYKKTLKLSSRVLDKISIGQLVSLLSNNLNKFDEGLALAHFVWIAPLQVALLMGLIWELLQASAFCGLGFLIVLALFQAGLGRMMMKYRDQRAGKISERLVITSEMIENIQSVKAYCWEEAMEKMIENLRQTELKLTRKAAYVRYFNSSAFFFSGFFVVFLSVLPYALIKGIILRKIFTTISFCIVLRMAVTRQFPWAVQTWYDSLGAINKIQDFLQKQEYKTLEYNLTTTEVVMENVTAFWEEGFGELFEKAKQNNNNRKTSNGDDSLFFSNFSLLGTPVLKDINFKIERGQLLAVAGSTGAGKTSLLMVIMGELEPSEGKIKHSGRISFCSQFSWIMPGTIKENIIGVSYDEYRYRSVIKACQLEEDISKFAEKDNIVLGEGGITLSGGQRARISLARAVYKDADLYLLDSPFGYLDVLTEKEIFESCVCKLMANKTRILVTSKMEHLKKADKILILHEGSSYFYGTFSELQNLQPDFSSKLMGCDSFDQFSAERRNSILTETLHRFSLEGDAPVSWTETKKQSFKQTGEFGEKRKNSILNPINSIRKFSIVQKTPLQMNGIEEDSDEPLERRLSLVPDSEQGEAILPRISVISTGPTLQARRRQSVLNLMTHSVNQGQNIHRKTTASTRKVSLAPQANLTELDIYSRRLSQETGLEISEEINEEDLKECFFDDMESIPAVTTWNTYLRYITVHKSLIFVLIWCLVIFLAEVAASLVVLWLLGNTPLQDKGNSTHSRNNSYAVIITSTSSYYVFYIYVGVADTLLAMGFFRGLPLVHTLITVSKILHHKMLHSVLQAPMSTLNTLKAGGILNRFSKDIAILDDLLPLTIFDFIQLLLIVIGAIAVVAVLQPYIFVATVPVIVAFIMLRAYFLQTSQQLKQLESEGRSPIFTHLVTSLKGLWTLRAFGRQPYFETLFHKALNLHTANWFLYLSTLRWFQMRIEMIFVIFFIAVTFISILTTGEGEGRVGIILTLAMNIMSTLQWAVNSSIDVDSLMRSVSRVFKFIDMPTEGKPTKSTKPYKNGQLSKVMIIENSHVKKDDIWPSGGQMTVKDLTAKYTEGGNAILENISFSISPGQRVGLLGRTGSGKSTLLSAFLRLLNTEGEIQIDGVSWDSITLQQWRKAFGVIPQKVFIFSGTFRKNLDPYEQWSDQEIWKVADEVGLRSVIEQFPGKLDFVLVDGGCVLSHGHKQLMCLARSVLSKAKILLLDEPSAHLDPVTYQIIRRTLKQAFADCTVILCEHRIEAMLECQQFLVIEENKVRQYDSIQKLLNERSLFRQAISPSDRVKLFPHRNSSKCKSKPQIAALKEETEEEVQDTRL
The experiment is described as follows: Membrane potential optical assay (FRET voltage-sensor dyes, VIPR), identification of potentiator compounds. Type of experiment: cell-based. The conditions noted are these: Table 3; assay not given. Put shortly:
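Potentiator screen measured membrane potential via FRET between CC2-DMPE donor and DiSBAC2(3), read on VIPR II. Compound went in with the first addition of chloride-free gluconate bath; cells were ΔF508-CFTR-expressing NIH3T3 mouse fibroblasts, temperature-corrected at 27 °C for 24 h.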
With `CCCc1ccc(NC(=O)c2c[nH]c3ccccc3c2=O)cc1N(C)C` [Compound 462, N-(3-dimethylamino-4-propyl-phenyl)-4-oxo-1H-quinoline-3-carboxamide], the pEC50 was > 5.00.

On to `CCOC(=O)c1cc(NC(=O)c2c[nH]c3ccccc3c2=O)cc2[nH]ccc12` [Compound 145, 6-[(4-oxo-1H-quinolin-3-yl)carbonylamino]-1H-indole-4-carboxylic acid ethyl ester], for which the negative logarithm of the EC50 (pEC50) is > 5.00.

With `CSc1ccccc1-c1ccccc1NC(=O)c1c[nH]c2ccccc2c1=O` [Compound 279, N-[2-(2-methylsulfanylphenyl)phenyl]-4-oxo-1H-quinoline-3-carboxamide], the pEC50 is > 5.00.

Consider `CCc1ccc(NC(=O)c2c[nH]c3ccccc3c2=O)cc1` [Compound 463, N-(4-ethylphenyl)-4-oxo-1H-quinoline-3-carboxamide], for which the negative-log EC50 (pEC50) was > 5.00.

Staying with this experiment, now noted: Table 3; assay not given; read-out: % Activity (% Efficacy, relative efficacy).
In the case of `COc1cccc(NC(=O)c2c[nH]c3ccccc3c2=O)c1` [Compound 408, N-(3-methoxyphenyl)-4-oxo-1H-quinoline-3-carboxamide], the Emax lay in the range of 25 to 100%.

On to `CCCc1ccc(NC(=O)c2c[nH]c3ccccc3c2=O)cc1N(C)C` [Compound 462, N-(3-dimethylamino-4-propyl-phenyl)-4-oxo-1H-quinoline-3-carboxamide], for which the Emax was in the range of 25 to 100%.

For `CC(C)(C)c1ccc(NC(=O)c2c[nH]c3cccc(O)c3c2=O)cc1O` [Compound 633, 5-hydroxy-N-(3-hydroxy-4-tert-butyl-phenyl)-4-oxo-1H-quinoline-3-carboxamide], the Emax is 25 to 100%.

Turning to `Cc1csc(-c2ccccc2NC(=O)c2c[nH]c3ccccc3c2=O)c1` [Compound 151, N-[2-(4-methyl-2-thienyl)phenyl]-4-oxo-1H-quinoline-3-carboxamide], the Emax was in the range of 25 to 100%.

`CCOC(=O)c1cc(NC(=O)c2c[nH]c3ccccc3c2=O)cc2[nH]ccc12` [Compound 145, 6-[(4-oxo-1H-quinolin-3-yl)carbonylamino]-1H-indole-4-carboxylic acid ethyl ester]: the Emax was 25 to 100%.

In the case of `CCOC(=O)NC1CCCc2ccc(NC(=O)c3c[nH]c4ccccc4c3=O)cc21` (stereo not drawn) [Compound 482, [7-[(4-Oxo-1H-quinolin-3-yl)carbonylamino]tetralin-1-yl]aminoformic acid ethyl ester], the Emax was 25 to 100%.

On to `CC(C)(C)c1cc(F)c(NC(=O)c2c[nH]c3cccc(F)c3c2=O)cc1O` [Compound 610, 5-fluoro-N-(2-fluoro-5-hydroxy-4-tert-butyl-phenyl)-4-oxo-1H-quinoline-3-carboxamide], for which the Emax lay within 25 to 100%.

As for `O=C(Nc1ccc(N2CCN(CCO)CC2)cc1C(F)(F)F)c1c[nH]c2ccccc2c1=O` [Compound 673, N-[4-[4-(2-hydroxyethyl)piperazin-1-yl]-2-(trifluoromethyl)phenyl]-4-oxo-1H-quinoline-3-carboxamide], the Emax was 25 to 100%.

As for `CC(C)c1ccc(NC(=O)c2c[nH]c3ccccc3c2=O)cc1O` [Compound 575, N-(3-hydroxy-4-isopropyl-phenyl)-4-oxo-1H-quinoline-3-carboxamide], the Emax is 25 to 100%.

`CC(C)(C)c1cc(C(F)(F)F)c(NC(=O)c2c[nH]c3cccc(O)c3c2=O)cc1O` [Compound 487, 5-hydroxy-N-[5-hydroxy-4-tert-butyl-2-(trifluoromethyl)phenyl]-4-oxo-1H-quinoline-3-carboxamide]: the Emax lay within 25 to 100%.

Consider `CC(C)(C)c1cc(C(C)(C)C)c(NC(=O)c2c[nH]c3ccc(F)cc3c2=O)cc1O` [Compound 103, 6-fluoro-N-(5-hydroxy-2,4-ditert-butyl-phenyl)-4-oxo-1H-quinoline-3-carboxamide], for which the Emax is > 100%.

Take `O=C(Nc1cc(O)c(Cl)cc1Cl)c1c[nH]c2ccccc2c1=O` [Compound 608, N-(2,4-dichloro-5-hydroxy-phenyl)-4-oxo-1H-quinoline-3-carboxamide]: the Emax lay in the range of 25 to 100%.

Turning to `O=C(Nc1ccc2cn[nH]c2c1)c1c[nH]c2ccccc2c1=O` [Compound 284, N-(1H-indazol-6-yl)-4-oxo-1H-quinoline-3-carboxamide], the Emax was in the range of 25 to 100%.

For the compound `O=C(Nc1ccc(C(F)(F)F)cc1Cl)c1c[nH]c2cccc(O)c2c1=O` [Compound 635, N-[2-chloro-4-(trifluoromethyl)phenyl]-5-hydroxy-4-oxo-1H-quinoline-3-carboxamide], the Emax was in the range of 25 to 100%.

As to `CC(C)(C)c1ccc(NC(=O)c2c[nH]c3ccccc3c2=O)cc1OCCO` [Compound 458, N-[3-(2-hydroxyethoxy)-4-tert-butyl-phenyl]-4-oxo-1H-quinoline-3-carboxamide], the Emax fell in the range of 25 to 100%.

Take `COc1ccc2[nH]cc(C(=O)Nc3ccc(N4CCC(C)(C)C4)cc3C(F)(F)F)c(=O)c2c1` [Compound 504, N-[4-(3,3-dimethylpyrrolidin-1-yl)-2-(trifluoromethyl)phenyl]-6-methoxy-4-oxo-1H-quinoline-3-carboxamide]: the Emax was 25 to 100%.

As to `CC(C)(C)c1cc(C(C)(C)C)c(NC(=O)c2c[nH]c3cc(OC(F)(F)F)ccc3c2=O)cc1O` [Compound 694, N-(5-hydroxy-2,4-ditert-butyl-phenyl)-4-oxo-7-(trifluoromethoxy)-1H-quinoline-3-carboxamide], the Emax lay within 25 to 100%.

Take `CSc1ccccc1-c1ccccc1NC(=O)c1c[nH]c2ccccc2c1=O` [Compound 279, N-[2-(2-methylsulfanylphenyl)phenyl]-4-oxo-1H-quinoline-3-carboxamide]: the Emax lay in the range of 25 to 100%.

In the case of `CC(C)(C)OC(=O)NCCc1c[nH]c2cc(NC(=O)c3c[nH]c4ccccc4c3=O)ccc12` [Compound 352, 2-[6-[(4-oxo-1H-quinolin-3-yl)carbonylamino]-1H-indol-3-yl]ethylaminoformic acid tert-butyl ester], the Emax fell in the range of 25 to 100%.

As for `O=C(Nc1ccc2c(c1)NCCC2)c1c[nH]c2ccccc2c1=O` [Compound 299, 4-Oxo-N-(1,2,3,4-tetrahydroquinolin-7-yl)-1H-quinoline-3-carboxamide], the Emax lay within 25 to 100%.

For the compound `COc1cc(NC(=O)c2c[nH]c3ccccc3c2=O)cc2ccccc12` [Compound 717, N-(4-methoxy-2-naphthyl)-4-oxo-1H-quinoline-3-carboxamide], the Emax lay in the range of 25 to 100%.

Regarding `CCc1cc2cc[nH]c2cc1NC(=O)c1c[nH]c2ccccc2c1=O` [Compound 351, N-(5-ethyl-1H-indol-6-yl)-4-oxo-1H-quinoline-3-carboxamide], the Emax is 25 to 100%.

As to `O=C(Nc1cccc2ncccc12)c1c[nH]c2ccccc2c1=O` [Compound 191, 4-oxo-N-(5-quinolyl)-1H-quinoline-3-carboxamide], the Emax is < 25%.

Consider `O=C(Nc1ccc(C(F)(F)F)cc1)c1c[nH]c2ccccc2c1=O` [Compound 236, 4-oxo-N-[4-(trifluoromethyl)phenyl]-1H-quinoline-3-carboxamide], for which the Emax fell in the range of 25 to 100%.

For the compound `O=C(Nc1ccccc1-c1nc2ccccc2[nH]1)c1c[nH]c2ccccc2c1=O` [Compound 227, N-[2-(3H-benzoimidazol-2-yl)phenyl]-4-oxo-1H-quinoline-3-carboxamide], the Emax was < 25%.

`CC1(C)CCCNc2cc(NC(=O)c3c[nH]c4ccccc4c3=O)ccc21` [Compound 35, 1,4-dihydro-N-(2,3,4,5-tetrahydro-5,5-dimethyl-1H-benzo[b]azepin-8-yl)-4-oxoquinoline-3-carboxamide]: the Emax lay within 25 to 100%.

Turning to `CCOc1ccccc1-c1cc(C(C)(C)C)c(O)cc1NC(=O)c1c[nH]c2ccccc2c1=O` [Compound 23, N-[2-(2-ethoxyphenyl)-5-hydroxy-4-tert-butyl-phenyl]-4-oxo-1H-quinoline-3-carboxamide], the Emax is 25 to 100%.

For the compound `CCc1ccc(NC(=O)c2c[nH]c3ccccc3c2=O)cc1NC(=O)OC` [Compound 129, [2-ethyl-5-[(4-oxo-1H-quinolin-3-yl)carbonylamino]phenyl]aminoformic acid methyl ester], the Emax fell in the range of 25 to 100%.

Consider `CCc1ccc(NC(=O)c2c[nH]c3ccccc3c2=O)cc1` [Compound 463, N-(4-ethylphenyl)-4-oxo-1H-quinoline-3-carboxamide], for which the Emax lay in the range of 25 to 100%.

These data come from patent US8802700B2 (Vertex Pharmaceuticals Incorporated, priority 2010, dated 2014).
